Patent publication US20260297027A1, “Non-Peptide Small Molecule FGF14:Nav1.6 Channel Complex Protein-Protein Interaction Modulators” (The Board of Regents of The University of Texas System, priority 2023, published 2026)
“Also recorded” adds a separate entry of the source.

How the values were obtained:
Nav1.6 = molecular target: T1, Nav1.6 (Homo sapiens, UniProt Q9UQD0); assay: Surface plasmon resonance (SPR), Nav1.6-C-terminal tail; type: binding; settings: Langmuir 1:1 interaction model (KD=koff/kon)
T1 construct: SPR against FGF14 and Nav1.6-C-terminal tail purified proteins
Description: (§1) Secondary bioactivity assays: Surface plasmon resonance (SPR). Analogues were then tested using SPR against FGF14 and Nav1.6-C-terminal tail purified proteins, the gold standard for protein binding studies. SPR experiments were used to quantitatively assess the binding affinity of analogues, serving as both a secondary bioactivity assay to determine accurate binding affinities for protein:ligand interactions via KD, Kon and Koff, as well as to assess the compound's ability to disrupt PPI. The reliability of the model, goodness of fit, and reported kinetic and binding constants were validated by varying flow rates, immobilization densities, or different chips. Statistical analysis was conducted by visually inspecting the goodness of fit of the data from the residuals. Additionally, c2 was used as a global measure for residual noise; standard deviation was used to report errors in measurements by repeating the experiment at least three times.
FIGS. 2A and 2B summarize selectivity and orthogonal validation of hits from the screening assay. […] Compounds that modulated complex assembly by ≥25% were excluded from further studies. Referring to FIG. 2B, the remaining 5 selective hits were then quantitatively assessed using SPR. […]
Referring to FIG. 2B, the remaining 5 selective hits were then quantitatively assessed using SPR. […]

FGF14 = molecular target: T2, FGF14 (Homo sapiens, UniProt Q92915); assay: Surface plasmon resonance (SPR), FGF14; type: binding
T2 sequence (Q92915 1-252 isoform Q92915-2): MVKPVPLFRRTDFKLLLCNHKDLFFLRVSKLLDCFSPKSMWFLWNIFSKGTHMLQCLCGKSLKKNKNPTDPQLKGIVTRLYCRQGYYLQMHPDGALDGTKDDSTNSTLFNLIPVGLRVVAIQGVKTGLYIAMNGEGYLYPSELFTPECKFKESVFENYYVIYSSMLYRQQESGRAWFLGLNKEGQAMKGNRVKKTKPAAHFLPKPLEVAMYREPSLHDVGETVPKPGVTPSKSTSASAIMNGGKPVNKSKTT
Description: as §1
FIGS. 2A and 2B summarize selectivity and orthogonal validation of hits from the screening assay. […] Compounds that modulated complex assembly by ≥25% were excluded from further studies. Referring to FIG. 2B, the remaining 5 selective hits were then quantitatively assessed using SPR. Binding sensorgrams are shown for FGF14 (left) and Nav1.6 (middle) and normalized steady-state saturation plots (right) reveal differences in compound:protein binding affinities. Kinetic analysis of each ligand/analyte interaction was obtained by fitting the response data to the simplest Langmuir 1:1 interaction model (KD=koff/kon).
Referring to FIG. 2B, the remaining 5 selective hits were then quantitatively assessed using SPR. Binding sensorgrams are shown for FGF14 (left) and Nav1.6 (middle) and normalized steady-state saturation plots (right) reveal differences in compound:protein binding affinities. Kinetic analysis of each ligand/analyte interaction was obtained by fitting the response data to the simplest Langmuir 1:1 interaction model (KD=koff/kon).

[1] = tested on: medium spiny neurons (MSN), Fgf14^+/+; assay: Patch-clamp electrophysiology in brain slices, MSN of NAc from Fgf14+/+ mice; type: cell-based; settings: 1 micromolar, in words
Description: (§2) Patch-clamp electrophysiology in brain slices. This assay provides a critical confirmatory step from the heterologous cell to the native system. With this assay, selected compounds were tested (typically, 3 concentrations) for their modulatory effects on MSN firing and Na+ currents using current clamp and voltage clamp recordings Parameters of interest included action potential threshold, amplitude, rise time, firing frequency, amplitude of Na+ currents and passive properties (i.e., Rseries, Rinput, Vm). Not only is this assay predictive of a compound's in vivo activity, it provides an assessment of potential toxicity and side effects based on secondary measurements (i.e., frequency, amplitude, and kinetics of synaptic potentials, Rinput, Vm). This assay was also used as the first target validation step in native tissue as compounds are concomitantly tested in neurons from Fgf14^−/− mice. Recordings were conducted from at least N=3 animals, n=10-15 recordings; effect is calculated using ANOVA mixed model.
(§3) Target validation of compound PW01028 in NAc slices.

[2] = molecular target: T3, Nav1.6 (HEK-Nav1.6 expressing GFP control) (Homo sapiens, UniProt Q9UQD0); assay: Patch-clamp electrophysiology in HEK-Nav1.6 cells expressing the GFP control construct; type: cell-based; settings: HEK-Nav1.6 expressing the GFP control construct; in words
T3 construct: patch clamp
Description: (§4) Confirmatory assays: Automated and manual patch-clamp electrophysiology in heterologous cells. Patch-clamp electrophysiology is a rigorous, sophisticated confirmatory and orthogonal assay that serves to assess compound functional activity, mechanism of action, specificity, and selectivity toward various Nav isoforms. It is highly predictive of in vivo efficacy of compounds. In this assay, compounds are tested in cells stably expressing FGF14 and Nav1.6 or other relevant iFGF:Nav channel pairs. Initially screened with an automated planar patch-clamp system, compounds were tested with an 8-point dose-response in 384-well plates with a throughput of >2,000 data sets/week. Compounds were then confirmed with manual patch-clamp at targeted concentrations. A multitude of physiological parameters of Nav channels including Na+ current amplitude, kinetics, voltage-dependence, use-dependency, and time-dependency reflecting the channel closed, opened, and inactivated states were automatically measured using specialized software (i.e., CLAMPEX). Data were typically derived from n=10-20 recordings, N=3 batches of cells. Data were compared using either Student's t-test or two-way ANOVA mixed model.
(§5) Functional activity of Compound PW01028. To study compound PW01028 functional activity against Nav1.6-encoded currents were studied in heterologous cells stably expressing Nav1.6 and/or FGF14-GFP (FIGURE). […]

[3] = tested on: Nav1.6 (cells stably expressing Nav1.6 and FGF14-GFP); assay: Patch-clamp electrophysiology in heterologous cells expressing Nav1.6 and FGF14; type: cell-based; settings: 1 μM
Description: as §4, §5

FGF14:Nav1.6 complex = molecular target: T4, FGF14:Nav1.6 complex (Homo sapiens, UniProt Q92915+Q9UQD0); assay: Split-luciferase complementation assay (LCA); type: cell-based
T4 construct: split firefly luciferase complementation
Source text: To identify small molecule probes targeting the FGF14:Nav1.6 PPI interface, the FGF14:Nav1.6 complex was reconstituted using the split-luciferase complementation assay (LCA), and a candidate pool of ~45,000 commercially available compounds was screened. An established screening pipeline was employed to validate hits. […] FIG. 1B summarizes exclusion of compounds based on the CellTiter Blue (CTB) cell viability fluorescence assay.
Primary assays: Split-luciferase complementation assay (LCA). The primary assay to detect FGF14:Nav1.6 complex formation in real-time in living cells is the split-luciferase complementation assay (LCA), which has been designed and successfully implemented specifically to study PPI between the Nav channel and iFGFs. With LCA, in-cell reconstitution of the FGF14:Nav1.6 channel complex was detected upon addition of the D-luciferin substrate, as a robust light signal representing the strength of interaction between the two binding partners. […] The high signal-to-noise ratio, favorable dynamic range, and reversibility of luminescence-based signals make LCA the ideal for HTS of potential regulators, as well as rapid dose-dependency studies (≥8 concentrations) to help guide subsequent in-depth hit validation using more labor-intensive approaches. […]

[4] = tested on: medium spiny neurons (MSN), Fgf14^−/−; assay: Patch-clamp electrophysiology in brain slices, MSN of NAc from Fgf14-/- mice; type: cell-based; settings: n=7-8/group, p>0.05, in words
Description: as §2, §3

T4 sequence (Q9UQD0 1763-1980 limits assumed, one chain of several): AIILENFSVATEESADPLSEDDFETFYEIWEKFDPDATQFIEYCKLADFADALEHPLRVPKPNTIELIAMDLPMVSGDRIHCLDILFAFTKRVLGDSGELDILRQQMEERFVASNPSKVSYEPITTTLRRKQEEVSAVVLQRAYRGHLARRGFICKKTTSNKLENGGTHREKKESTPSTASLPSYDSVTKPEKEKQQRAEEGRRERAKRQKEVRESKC
T1 sequence (Q9UQD0 1767-1912 limits assumed): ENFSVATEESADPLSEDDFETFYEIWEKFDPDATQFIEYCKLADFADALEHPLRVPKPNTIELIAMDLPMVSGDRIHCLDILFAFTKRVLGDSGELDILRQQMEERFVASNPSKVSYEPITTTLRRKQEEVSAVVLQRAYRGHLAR
T3 sequence (Q9UQD0 whole entry): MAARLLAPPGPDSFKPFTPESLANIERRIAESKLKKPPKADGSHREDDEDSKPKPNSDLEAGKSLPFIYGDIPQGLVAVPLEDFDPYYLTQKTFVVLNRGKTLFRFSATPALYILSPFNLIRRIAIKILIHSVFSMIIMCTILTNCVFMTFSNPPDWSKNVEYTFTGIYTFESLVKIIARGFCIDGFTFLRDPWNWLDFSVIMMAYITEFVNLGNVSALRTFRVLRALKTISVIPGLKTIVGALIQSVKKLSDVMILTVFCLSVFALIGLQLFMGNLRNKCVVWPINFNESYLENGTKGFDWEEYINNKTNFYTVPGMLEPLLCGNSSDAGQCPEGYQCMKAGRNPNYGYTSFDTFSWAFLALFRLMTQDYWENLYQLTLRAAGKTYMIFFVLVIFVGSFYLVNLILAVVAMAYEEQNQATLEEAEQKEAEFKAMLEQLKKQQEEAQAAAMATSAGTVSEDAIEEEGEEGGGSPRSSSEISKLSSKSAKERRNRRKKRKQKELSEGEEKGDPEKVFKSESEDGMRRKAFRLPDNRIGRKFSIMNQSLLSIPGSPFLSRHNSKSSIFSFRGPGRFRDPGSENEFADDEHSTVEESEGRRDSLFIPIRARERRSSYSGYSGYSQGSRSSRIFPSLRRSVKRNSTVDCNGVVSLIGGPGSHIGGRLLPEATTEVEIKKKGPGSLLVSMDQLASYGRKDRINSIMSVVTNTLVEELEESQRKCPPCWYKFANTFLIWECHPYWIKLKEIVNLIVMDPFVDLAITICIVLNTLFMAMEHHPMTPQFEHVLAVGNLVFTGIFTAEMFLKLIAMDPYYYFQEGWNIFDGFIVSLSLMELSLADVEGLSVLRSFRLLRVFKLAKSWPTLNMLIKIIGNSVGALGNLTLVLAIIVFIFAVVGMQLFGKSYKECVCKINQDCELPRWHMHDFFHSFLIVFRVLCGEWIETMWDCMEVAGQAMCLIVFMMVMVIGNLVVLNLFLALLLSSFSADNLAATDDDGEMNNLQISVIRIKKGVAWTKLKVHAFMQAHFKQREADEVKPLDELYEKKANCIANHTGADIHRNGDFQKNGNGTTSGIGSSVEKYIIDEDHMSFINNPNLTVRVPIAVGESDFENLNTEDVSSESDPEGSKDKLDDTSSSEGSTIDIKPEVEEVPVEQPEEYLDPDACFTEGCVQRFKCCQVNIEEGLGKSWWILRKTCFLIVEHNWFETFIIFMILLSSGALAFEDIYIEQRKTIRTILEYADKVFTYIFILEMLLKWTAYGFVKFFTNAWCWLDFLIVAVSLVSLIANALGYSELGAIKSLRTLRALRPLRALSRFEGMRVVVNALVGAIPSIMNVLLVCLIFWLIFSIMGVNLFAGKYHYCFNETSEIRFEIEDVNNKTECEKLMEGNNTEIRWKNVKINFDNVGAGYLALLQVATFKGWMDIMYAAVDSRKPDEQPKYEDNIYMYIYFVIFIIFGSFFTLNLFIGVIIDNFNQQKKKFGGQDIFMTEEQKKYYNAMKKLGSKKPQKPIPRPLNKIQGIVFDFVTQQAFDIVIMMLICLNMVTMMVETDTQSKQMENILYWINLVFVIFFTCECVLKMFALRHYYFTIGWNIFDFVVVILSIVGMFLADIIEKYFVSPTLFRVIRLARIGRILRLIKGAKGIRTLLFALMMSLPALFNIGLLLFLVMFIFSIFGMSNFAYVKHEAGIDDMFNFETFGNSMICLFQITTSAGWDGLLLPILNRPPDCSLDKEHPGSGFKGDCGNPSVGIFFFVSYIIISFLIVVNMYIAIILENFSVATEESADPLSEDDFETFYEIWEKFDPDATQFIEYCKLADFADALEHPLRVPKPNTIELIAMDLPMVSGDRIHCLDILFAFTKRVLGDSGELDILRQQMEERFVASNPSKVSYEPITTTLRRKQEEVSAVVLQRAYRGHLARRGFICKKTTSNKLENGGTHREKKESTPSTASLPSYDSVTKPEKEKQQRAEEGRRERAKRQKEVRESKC

| Kd (Nav1.6) [nM] | Kd (FGF14; Langmuir 1:1 interaction model (KD=koff/kon)) [nM] | binding affinity to FGF14 (FGF14; in words) | functional effects [2] | IC50 (FGF14:Nav1.6 complex; LCA, read-out: IC50 for modulation of FGF14:Nav1.6 complex formation) [nM] | potency in the LCA dose-response studies (FGF14:Nav1.6 complex; dose-response, in words) | Structure (SMILES) | ligand binding to the FGF14 R117 residue (FGF14; in words) | effect on Nav channel closure / Na+ currents in MSN ([1]; Fgf14+/+ (wild-type) mice) | effect on MSN firing ([1]; Fgf14+/+ mice, n=19-20/group, p<0.0001) | depolarizing shift in the voltage-dependence of steady-state inactivation of the transient Na+ current ([3]; FGF14-mediated regulatory effects on Nav1.6) | effect on voltage-dependence (V1/2) of steady-state inactivation ([3]; in words, n=6-10 cells/group) | effect on MSN firing / Na+ currents [4] |
| --- | --- | --- | --- | --- | --- | --- | --- | --- | --- | --- | --- | --- |
| 13600 | 2900 | – | – | – | – | Cc1cccc(NC(=O)Cn2cc(CO)c3ccccc32)c1 [Compound 7605086, 2-(3-(Hydroxymethyl)-1H-indol-1-yl)-N-(m-tolyl)acetamide] | – | – | – | – | – | – |
| – | – | nanomolar binding affinity | no functional effects | ~250 | nanomolar potency | CCOC(=O)c1cccc(NC(=O)Cn2cc(CO)c3ccccc32)c1 [PW01028, Ethyl 3-(2-(3-(hydroxymethyl)-1H-indol-1-yl)acetamido)benzoate] | evidence for ligand binding to the FGF14^R117 residue | potentiated MSN firing and transient Na^+ currents (INaP); also recorded: hampered Nav channel closure, prolonged Na+ currents | potentiated MSN firing; also recorded: increases firing in MSN; also recorded: potentiated intrinsic firing | +15 mV | markedly shifted V1/2 and steady-state inactivation to a more depolarized potential; also recorded: shifts voltage-dependence of steady-state inactivation of Na+ currents | inactive in MSN from Fgf14^−/− mice; also recorded: Lack of effect; also recorded: absent in Fgf14^−/− mice |
